{"source": "paper PMC4574636", "about": "(Biochemical pharmacology, 2015)", "key": {"human AOX1 I1085A": {"biological_target": "T1, human AOX1 I1085A (Homo sapiens, UniProt Q06278, I1085A)", "T1 sequence (Q06278 1-1338 I1085A)": "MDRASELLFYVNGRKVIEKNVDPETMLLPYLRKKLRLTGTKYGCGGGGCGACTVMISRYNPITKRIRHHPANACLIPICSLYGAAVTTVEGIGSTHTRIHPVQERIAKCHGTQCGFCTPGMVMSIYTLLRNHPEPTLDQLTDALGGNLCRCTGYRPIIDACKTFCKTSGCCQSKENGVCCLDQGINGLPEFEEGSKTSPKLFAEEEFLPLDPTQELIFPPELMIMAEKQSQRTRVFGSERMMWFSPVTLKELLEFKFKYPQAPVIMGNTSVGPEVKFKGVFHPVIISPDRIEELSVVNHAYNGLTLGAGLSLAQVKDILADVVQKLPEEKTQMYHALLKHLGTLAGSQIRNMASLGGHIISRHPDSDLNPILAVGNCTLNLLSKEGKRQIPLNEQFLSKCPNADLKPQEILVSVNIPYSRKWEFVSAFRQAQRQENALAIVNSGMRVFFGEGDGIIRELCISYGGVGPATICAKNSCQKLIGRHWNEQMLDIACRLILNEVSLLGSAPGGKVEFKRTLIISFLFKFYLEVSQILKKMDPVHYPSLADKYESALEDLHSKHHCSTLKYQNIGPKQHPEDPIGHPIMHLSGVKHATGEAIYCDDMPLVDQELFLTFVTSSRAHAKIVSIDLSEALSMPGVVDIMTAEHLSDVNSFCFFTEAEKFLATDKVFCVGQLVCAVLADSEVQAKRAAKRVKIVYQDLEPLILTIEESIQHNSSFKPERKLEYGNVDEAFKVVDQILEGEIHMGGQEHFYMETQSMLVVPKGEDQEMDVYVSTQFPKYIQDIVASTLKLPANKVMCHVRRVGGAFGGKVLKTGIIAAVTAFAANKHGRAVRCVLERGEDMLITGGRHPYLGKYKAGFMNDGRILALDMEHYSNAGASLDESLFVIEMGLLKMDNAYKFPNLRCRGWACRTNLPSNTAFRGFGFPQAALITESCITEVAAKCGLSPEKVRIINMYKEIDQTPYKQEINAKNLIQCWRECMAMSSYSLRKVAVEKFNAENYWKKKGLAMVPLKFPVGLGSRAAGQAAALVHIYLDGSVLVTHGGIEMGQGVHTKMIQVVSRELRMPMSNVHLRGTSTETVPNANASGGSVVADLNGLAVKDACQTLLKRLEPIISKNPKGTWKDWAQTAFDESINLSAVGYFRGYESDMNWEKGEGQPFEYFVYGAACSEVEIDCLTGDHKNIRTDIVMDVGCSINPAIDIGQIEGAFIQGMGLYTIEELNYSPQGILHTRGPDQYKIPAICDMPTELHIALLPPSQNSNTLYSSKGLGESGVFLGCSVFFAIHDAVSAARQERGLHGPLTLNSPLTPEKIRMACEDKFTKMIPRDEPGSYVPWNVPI", "experiment": "Methotrexate hydroxylation by purified recombinant human AOX1 I1085A mutant", "assay_type": "in vitro ADME", "settings": "I1085A single mutant, Figure 5"}, "human AOX1 V1016R": {"biological_target": "T2, human AOX1 V1016R (Homo sapiens, UniProt Q06278, V1016R)", "T2 sequence (Q06278 1-1338 V1016R)": "T1 sequence (Q06278 1-1338 I1085A) with V1016R, A1085I", "experiment": "Methotrexate hydroxylation by purified recombinant human AOX1 V1016R mutant", "assay_type": "in vitro ADME", "settings": "V1016R single mutant"}}, "note": "Substitutions are numbered along the chain they refer to. “Also recorded” adds a separate entry of the source."}
{"compound": "CN(Cc1cnc2nc(N)nc(N)c2n1)c1ccc(C(=O)N[C@@H](CCC(=O)O)C(=O)O)cc1", "note": "[Methotrexate, 4-amino-N^1^0-methylpteroglutamic acid]", "values": [{"measurement": "Km / affinity vs wild type", "setting": "human AOX1 I1085A", "value": "lower Km and higher affinity; also recorded: Km that was similar to cytosolic AOX from rabbit liver"}, {"measurement": "Methotrexate hydroxylation activity vs wild type", "setting": "human AOX1 I1085A", "value": "slightly higher activity compared to the wild type"}, {"measurement": "Km / affinity vs wild type", "setting": "human AOX1 V1016R; Figure 5", "value": "decreased affinity for methotrexate compared to wild type AOX1"}, {"measurement": "Methotrexate hydroxylation activity vs wild type", "setting": "human AOX1 V1016R; p < 0.01, Figure 5", "value": "significant decrease"}]}
